Measurements from patent US8865894B2, “Oxazolidin-2-one compounds and uses thereof” (Novartis AG, priority 2012, dated 2014).

Experiments:
Type in all cases: cell-based
[1] = biological target: T1, human PI3Kalpha p110 catalytic subunit (Rat-1 pBABEpuro Myr-HA-hp110alpha) (Homo sapiens, UniProt P42336); experiment: Cellular assay PI3Kalpha (p-Akt(S473) SureFire, Rat-1_PI3Kalpha cells); conditions: 1 h compound treatment, read-out: Rat1-PI3Ka/ IC50
T1 construct: Myr (myristoylation signal) (N); HA (N); expressed in transfected cells; host or cells: Rat-1
T1 sequence (P42336 whole entry): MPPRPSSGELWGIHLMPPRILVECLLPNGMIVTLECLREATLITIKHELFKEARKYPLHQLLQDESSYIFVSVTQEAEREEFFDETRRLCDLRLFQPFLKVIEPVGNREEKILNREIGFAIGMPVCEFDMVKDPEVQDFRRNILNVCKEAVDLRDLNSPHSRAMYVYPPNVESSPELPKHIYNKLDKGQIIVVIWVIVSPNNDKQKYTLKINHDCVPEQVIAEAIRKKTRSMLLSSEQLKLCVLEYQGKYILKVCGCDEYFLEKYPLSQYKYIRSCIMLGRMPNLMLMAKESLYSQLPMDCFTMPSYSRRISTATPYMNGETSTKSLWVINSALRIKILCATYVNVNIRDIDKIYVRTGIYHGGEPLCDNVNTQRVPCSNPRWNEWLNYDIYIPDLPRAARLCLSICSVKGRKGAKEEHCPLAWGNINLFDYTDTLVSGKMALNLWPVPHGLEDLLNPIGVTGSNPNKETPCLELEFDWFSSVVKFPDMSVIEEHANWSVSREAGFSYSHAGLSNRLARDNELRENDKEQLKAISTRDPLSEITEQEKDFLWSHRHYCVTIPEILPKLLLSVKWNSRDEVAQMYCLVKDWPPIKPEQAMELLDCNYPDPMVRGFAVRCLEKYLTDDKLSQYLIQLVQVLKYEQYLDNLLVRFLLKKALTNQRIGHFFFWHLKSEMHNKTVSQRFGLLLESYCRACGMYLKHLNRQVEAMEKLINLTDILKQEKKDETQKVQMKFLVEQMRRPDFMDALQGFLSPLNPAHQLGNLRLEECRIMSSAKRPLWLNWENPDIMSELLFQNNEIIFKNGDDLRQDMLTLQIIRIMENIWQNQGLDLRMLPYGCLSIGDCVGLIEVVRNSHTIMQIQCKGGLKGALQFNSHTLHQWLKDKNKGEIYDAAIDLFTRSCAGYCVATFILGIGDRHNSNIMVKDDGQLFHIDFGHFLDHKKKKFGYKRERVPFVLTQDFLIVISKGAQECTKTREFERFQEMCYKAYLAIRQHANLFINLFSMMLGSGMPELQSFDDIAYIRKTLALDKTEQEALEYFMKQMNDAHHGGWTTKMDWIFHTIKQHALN
T1 sequence (Q63787 whole entry partner): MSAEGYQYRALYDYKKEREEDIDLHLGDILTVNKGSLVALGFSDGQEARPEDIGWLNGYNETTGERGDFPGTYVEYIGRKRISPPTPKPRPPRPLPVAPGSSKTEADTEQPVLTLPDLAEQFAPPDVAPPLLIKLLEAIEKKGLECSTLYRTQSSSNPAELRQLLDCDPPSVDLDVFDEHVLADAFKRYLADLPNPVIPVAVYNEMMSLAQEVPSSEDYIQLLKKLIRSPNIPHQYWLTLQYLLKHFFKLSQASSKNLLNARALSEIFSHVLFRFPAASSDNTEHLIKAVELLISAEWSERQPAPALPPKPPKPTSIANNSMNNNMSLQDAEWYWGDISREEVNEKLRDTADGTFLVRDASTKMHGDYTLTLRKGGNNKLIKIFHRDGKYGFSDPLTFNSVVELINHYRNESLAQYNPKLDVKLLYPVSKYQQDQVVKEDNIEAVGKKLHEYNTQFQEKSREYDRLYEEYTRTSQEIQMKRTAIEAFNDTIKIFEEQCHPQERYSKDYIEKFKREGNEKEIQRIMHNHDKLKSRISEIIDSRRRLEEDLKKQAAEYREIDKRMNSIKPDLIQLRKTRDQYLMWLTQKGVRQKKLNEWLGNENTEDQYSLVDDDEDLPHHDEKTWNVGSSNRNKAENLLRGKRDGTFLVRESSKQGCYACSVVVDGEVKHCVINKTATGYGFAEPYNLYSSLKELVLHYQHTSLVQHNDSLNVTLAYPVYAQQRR
Description: (§1) AlphaScreen (Amplified Luminescent Proximity Homogeneous Assay, ALPHA, Perkin Elmer) is a non-radioactive bead-based proximity assay technology to study biomolecular interactions in a homogenous microtiter plate format. The brand name SureFire denotes AlphaScreen assays that are adapted to quantify the phosphorylation of endogenous cellular proteins in cell lysates, by using matched antibody pairs, which consist of an anti-phospho-kinase and an anti-kinase antibody. The assay allows characterization of kinase signaling in cells as well as measurement of kinase inhibitor effects. The AlphaScreen technology provides several advantages over standard assay techniques such as ELISA, as it avoids time-consuming washing procedures and reduces plate handling. Furthermore, it is miniaturizable at least to a 384-well format and provides sensitivity down to the femtomolar range, dependent on the affinity of the antibodies included in the individual AlphaScreen SureFire assay kit. High sensitivity is reached by an intrinsic amplification mechanism, which involves production of singlet oxygen molecules. SureFire assay kits are commercially available for specific targets and include pairs of validated antibodies (PerkinElmer). This report describes common procedures applied for AlphaScreen SureFire assays and respective semi-automated steps for routine kinase inhibitor profiling in cell-based assays.
(§2) The Rat-1 cell lines stably overexpressing activated PI3K class I isoforms Rat-1 pBABEpuro Myr-HA-hp110 delta (Rat-1_PI3Kdelta) and Rat-1 pBABEpuro Myr-HA-hp110alpha (Rat-1_PI3Kalpha) and Rat-1 pBABEpuro Myr-HA-hp110 beta (Rat-1_PI3beta) were prepared as described (Maira S M, Stauffer F, Brueggen J, Furet P, Schnell C, Fritsch C, Brachmann S, Chène P, de Pover A, Schoemaker K, Fabbro D, Gabriel D, Simonen M, Murphy L, Finan P, Sellers W, García-Echeverría C (2008), Mol Cancer Ther. 7:1851-63 and Maira S M, Pecchi S, Brueggen J, Huh K, Schnell C, Fritsch C, Nagel T, Wiesmann M, Brachmann S, Dorsch M, Chène P, Schoemaker K, De Pover A, Menezes D, Fabbro D, Sellers W, García-Echeverría C, Voliva C F (2011), Mol. Cancer Ther., accepted). All cell lines were cultivated in complete growth medium (DMEM high glucose, 10% (v/v) fetal bovine serum, 1% (v/v) MEM NEAA, 10 mM HEPES, 2 mM L-glutamine, puromycin (10 μg/mL for Rat-1_PI3Kdelta and Rat-1_PI3Kalpha, 4 ug/mL for Rat-1_PI3beta), 1% (v/v) Pen/Strep) to 90% confluency at 37° C./5% CO2/90% humidity in a humidified CO2 incubator and were split twice a week.
(§3) The following materials were used for p-AKT(S473) detection in Rat-1 cell lysates: Dulbecco's modified Eagle's medium (DMEM) high glucose (Gibco Invitrogen, Basel, Switzerland, Cat. No. 41965), Heat Inactivated Fetal Bovine Serum, Qualified (HI FBS; Gibco Invitrogen, Basel, Switzerland, Lot. No. 16140), MEM non essential amino acids (NEAA; Gibco Invitrogen, Basel, Switzerland, Cat. No. 11140), HEPES (Gibco Invitrogen, Basel, Switzerland, Cat. No. 15630), Penicillin/Streptomycin (Pen/Strep, 100×; Gibco Invitrogen, Basel, Switzerland, Cat. No. 15140-122), L-Glutamine (Gibco Invitrogen, Basel, Switzerland, Cat. No. 25030), Puromycin (Sigma Aldrich, Buchs, Switzerland, Cat. No. P9620), DMSO (MERCK, Dietikon, Switzerland, Cat. No. 8.02912.2500), H2O, MilliQ-H2O unless otherwise stated (MILLIPORE QGARDOOR1, Millipore, Zug, Switzerland), Bovine serum albumine (BSA; Sigma Aldrich, Buchs, Switzerland Cat. No. A8412), SureFire p-Akt 1/2 (Ser473) Assay Kit (PerkinElmer, Schwerzenbach, Switzerland, Cat. No. TGRAS50K).
(§4) The p-Akt(S473) SureFire assay measures the phosphorylation of endogenous cellular Akt 1/2 at Ser473 in cell lysates. Using Rat-1 cells stably expressing myr-HA-tagged versions of the human PI3Kdelta, PI3Kalpha, or PI3Kbeta p110 catalytic subunit isoforms, the assay was developed as a two-plate protocol in a 384-well format.

[2] = biological target: T2, human PI3Kbeta p110 catalytic subunit (Rat-1 pBABEpuro Myr-HA-hp110 beta) (Homo sapiens, UniProt P42338); experiment: Cellular assay PI3Kbeta (p-Akt(S473) SureFire, Rat-1_PI3beta cells); conditions: p-Akt(S473), 1 h compound treatment; read-out: Rat1-PI3Kb/ IC50
T2 construct: Myr (myristoylation signal) (N); HA (N); expressed in transfected cells; host or cells: Rat-1
T2 sequence (P42338 whole entry): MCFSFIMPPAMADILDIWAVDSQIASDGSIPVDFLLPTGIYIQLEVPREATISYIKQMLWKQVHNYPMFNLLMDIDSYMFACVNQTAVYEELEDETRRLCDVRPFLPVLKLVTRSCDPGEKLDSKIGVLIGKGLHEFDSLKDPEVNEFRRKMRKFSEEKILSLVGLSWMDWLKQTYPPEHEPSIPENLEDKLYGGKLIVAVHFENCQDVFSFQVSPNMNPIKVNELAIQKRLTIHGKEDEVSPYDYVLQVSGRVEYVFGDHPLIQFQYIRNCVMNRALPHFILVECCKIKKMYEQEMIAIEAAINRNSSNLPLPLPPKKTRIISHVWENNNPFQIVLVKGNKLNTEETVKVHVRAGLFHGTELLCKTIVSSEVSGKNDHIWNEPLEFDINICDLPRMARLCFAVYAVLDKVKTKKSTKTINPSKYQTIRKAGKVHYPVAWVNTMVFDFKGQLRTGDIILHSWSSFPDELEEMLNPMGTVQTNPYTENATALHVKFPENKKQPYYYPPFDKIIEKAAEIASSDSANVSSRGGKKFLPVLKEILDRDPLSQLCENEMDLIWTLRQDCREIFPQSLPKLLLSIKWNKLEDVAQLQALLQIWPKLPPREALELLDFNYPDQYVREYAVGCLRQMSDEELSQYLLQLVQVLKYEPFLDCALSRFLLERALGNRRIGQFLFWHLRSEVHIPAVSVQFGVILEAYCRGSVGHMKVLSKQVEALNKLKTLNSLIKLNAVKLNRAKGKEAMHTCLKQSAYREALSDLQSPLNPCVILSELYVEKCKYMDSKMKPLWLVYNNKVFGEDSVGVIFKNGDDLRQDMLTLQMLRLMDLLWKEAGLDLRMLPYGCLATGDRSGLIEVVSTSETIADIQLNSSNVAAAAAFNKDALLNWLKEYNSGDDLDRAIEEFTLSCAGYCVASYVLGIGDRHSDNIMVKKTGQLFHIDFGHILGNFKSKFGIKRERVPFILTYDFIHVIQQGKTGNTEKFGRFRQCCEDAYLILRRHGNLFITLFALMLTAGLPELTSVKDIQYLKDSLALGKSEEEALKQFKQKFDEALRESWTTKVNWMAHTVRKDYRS
T2 sequence (Q63787 whole entry partner): as the sequence (Q63787 whole entry partner) above
Description: as §1, §2, §3, §4

[3] = biological target: T3, human PI3Kdelta p110 catalytic subunit (Rat-1 pBABEpuro Myr-HA-hp110 delta) (Homo sapiens, UniProt O00329); experiment: Cellular assay PI3Kdelta (p-Akt(S473) SureFire, Rat-1_PI3Kdelta cells); conditions: 1 h compound treatment, read-out: Rat1-PI3Kd/ IC50
T3 construct: Myr (myristoylation signal) (N); HA (N); expressed in transfected cells; host or cells: Rat-1
T3 sequence (O00329 whole entry): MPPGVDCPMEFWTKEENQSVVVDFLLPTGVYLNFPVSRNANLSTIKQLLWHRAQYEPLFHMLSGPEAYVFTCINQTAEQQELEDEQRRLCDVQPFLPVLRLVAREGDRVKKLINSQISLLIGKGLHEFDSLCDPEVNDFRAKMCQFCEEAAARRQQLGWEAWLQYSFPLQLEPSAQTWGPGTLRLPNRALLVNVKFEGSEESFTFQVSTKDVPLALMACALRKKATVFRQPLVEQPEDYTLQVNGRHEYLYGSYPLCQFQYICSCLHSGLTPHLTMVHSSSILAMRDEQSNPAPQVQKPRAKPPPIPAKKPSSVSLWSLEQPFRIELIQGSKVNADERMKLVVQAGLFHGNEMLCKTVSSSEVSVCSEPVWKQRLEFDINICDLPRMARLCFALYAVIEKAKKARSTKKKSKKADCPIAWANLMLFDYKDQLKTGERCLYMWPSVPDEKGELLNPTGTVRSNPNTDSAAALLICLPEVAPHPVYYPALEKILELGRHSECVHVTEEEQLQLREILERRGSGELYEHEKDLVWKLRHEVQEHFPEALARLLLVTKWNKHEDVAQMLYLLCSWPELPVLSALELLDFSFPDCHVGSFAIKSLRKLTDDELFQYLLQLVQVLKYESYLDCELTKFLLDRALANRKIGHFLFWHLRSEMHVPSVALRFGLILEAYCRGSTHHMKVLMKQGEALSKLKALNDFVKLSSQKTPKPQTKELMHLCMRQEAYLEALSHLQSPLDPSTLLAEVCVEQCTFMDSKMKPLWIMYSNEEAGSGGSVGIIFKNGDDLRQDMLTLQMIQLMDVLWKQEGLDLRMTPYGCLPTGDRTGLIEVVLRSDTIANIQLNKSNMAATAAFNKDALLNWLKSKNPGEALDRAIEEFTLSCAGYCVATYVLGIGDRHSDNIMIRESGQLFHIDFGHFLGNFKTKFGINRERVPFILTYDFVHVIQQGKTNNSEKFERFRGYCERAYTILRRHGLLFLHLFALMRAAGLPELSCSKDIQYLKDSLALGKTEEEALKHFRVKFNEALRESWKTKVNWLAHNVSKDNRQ
T3 sequence (Q63787 whole entry partner): as the sequence (Q63787 whole entry partner) above
Description: as §1, §2, §3, §4

mTOR = biological target: T4, mTOR (Mus musculus, UniProt Q9JLN9); experiment: Cellular assay mTOR (phospho-T389 S6K1 SureFire in TSC1-/- MEF cells); conditions: TSC1-/- MEF cells; read-out: mTOR S6K(T389)_TSC1ko/ IC50
T4 construct: endogenous in cells; host or cells: TSC1-/- MEF (mouse embryo fibroblasts)
Description: A cell based assay (384-well format) was developed for determination of compound effects on cellular mTOR kinase activity in MEF (mouse embryo fibroblasts) cells derived from mice lacking TSC1 (Tuberosclerosis Complex1) a potent suppressor of mTOR kinase activity. Due to lack of TSC1 the mTOR kinase is constitutively activated resulting in permanent phosphorylation of Thr 389 of S6 kinase 1 (S6K1) which is one of the downstream targets of mTOR.
Using a SureFire Kit that enables to determine the phosphorylation of Thr389 on the S6K1 an assay was developed, validated and implemented in the Alpha-Screen format that allows the quantitative determination of phospho-T389 of S6K1 in cell lysates. […] These were in agreement with those values obtained with the biochemical mTOR ATP-binding assay enabling a quantitative comparison of potency of mTOR inhibitors.
TSC1−/− MEFs cells (Kwiatkowski, D. J., Zhang, H., Bandura, J. L., Heiberger, K. M., Glogauer, M., el-Hashemite, N., and Onda, H. (2002) Hum. Mol. Genet. 11, 525-534) were cultured in DMEM high glucose medium supplemented with 10% FBS (Invitrogen), 2 mM Glutamine and 1% (w/v) Penicillin/Streptomycin at 37° C., 5% CO2.
The SureFire kit for determination of P70S6kinase phosphorylation was purchased from Perkin Elmer (p70S6K p-T389, #TGR70S50K) and the assay was performed according to the instructions of the supplier and according to the generic method for SureFire assays. Shortly, 5 μL cell lysate per well were transferred to 384-well white proxy-plates (for luminescent readout) and mixed with […] and […] (final volume: 12 μL). After 3 h incubation in the dark at RT luminescence was read with the Envision Reader (Perkin Elmer). Untreated cells were used as control (high control) and cells treated with 3 μM BEZ235 were used as low control. The assay window between the signals obtained for the high and the low controls were defined as 100% and compound effects were expressed as percent inhibition. IC50 values were calculated from the dose response curves by graphical extrapolation.

A2058 cells = experiment: Cell cycle G2/M arrest Cytospin assay to detect tubulin binding (off-target); set-up: key: 0=no condensed DNA observed (indicating no off target activity); 1=(indicating weak off target activity); 2=(indicating medium off target activity); 3=large amount of condensed DNA observed (indicating strong off-target activity); conditions: 5 μM test item, 24 hours
Procedure: The off-target effect (evidence of tubulin binding) was measured as follows.
Cell cycle G2/M arrest Cytospin assay to detect tubulin binding (off-target) binding activities of MAPP derivatives: 5×10^5 cells A2058 cells were plated in 6-well cluster, with 2 mL of DMEM (high Glucose containing 1% sodium pyruvate, 1% glutamin and 10% FCS). 18 hours later, the test items were added at a concentration of 5 μM (spiking 1 μL of a 10 mM solution of the test item). 24 hours later, the cells were trypsinized and transferred into a 15 mL conical tube. Cells are then pelleted by centrifugation, and resuspended with PBS/0 (containing 10% FCS). Cells are counted with a CASY counter, and each samples equilibrated to 1×10^6 cells/mL. […] The staining was visually assessed for the presence of condensed DNA and given a score where 0=no condensed DNA observed (indicating no off target activity), 1=(indicating weak off target activity), 2=(indicating medium off target activity), 3=large amount of condensed DNA observed (indicating strong off-target activity).

Row | SMILES | IC50 [1] [nM] | IC50 [2] [nM] | IC50 [3] [nM] | IC50 (mTOR) [nM] | Score (condensed DNA, G2/M arrest; off-target tubulin binding) (A2058 cells)
1 | CC1(CO)COC(=O)N1c1cc(-c2cnc(N)nc2C(F)(F)F)nc(N2CCOCC2)n1 (single isomer, unassigned) [Example 3A, 3-(2′-amino-2-morpholino-4′-(trifluoromethyl)-4,5′-bipyrimidin-6-yl)-4-(hydroxymethyl)-4-methyloxazolidin-2-one] | 176 | 93 | 59 | 1570 | 0
2 | CC1(CO)COC(=O)N1c1cc(-c2cnc(N)nc2C(F)(F)F)nc(N2CCOCC2)n1 (single isomer, unassigned) [Example 3B, 3-(2′-amino-2-morpholino-4′-(trifluoromethyl)-4,5′-bipyrimidin-6-yl)-4-(hydroxymethyl)-4-methyloxazolidin-2-one] | 215 | 331 | 172 | 1110 | 0
3 | Nc1ncc(-c2cc(N3C(=O)OC[C@@H]3CO)nc(N3CCOCC3)n2)c(C(F)(F)F)n1 [Example 7, (S)-3-(2′-Amino-2-morpholin-4-yl-4′-trifluoromethyl-[4,5′]bipyrimidinyl-6-yl)-4-hydroxymethyl-oxazolidin-2-one] | 120 | 132 | 70 | 1230 | –
4 | Nc1cc(C(F)(F)F)c(-c2cc(N3CCOCC3)nc(N3CCOCC3)n2)cn1 [WO2007/084786 Example 10, reference compound] | – | – | – | 602 | 3
